Several values for one entry are separate records, joined by “and”; a condition that tells them apart may be missing. Equal entries are not always repeated.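 In this assay, cells in 96-well plates receive the compound at five concentrations for 48 hours. Endpoints are linearly interpolated between the surrounding concentrations. The concentration for 50% growth inhibition is given as GI50. TGI: concentration producing complete growth inhibition.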
Experiments:
Experiment in all cases: NCI-60 cell line screen, 48 h
SN12C renal = tested on: SN12C renal
DLD-1 colon = tested on: DLD-1 colon
MOLT-4 leukemia = tested on: MOLT-4 leukemia
SF-539 CNS = tested on: SF-539 CNS
DU-145 prostate = tested on: DU-145 prostate
K-562 leukemia = tested on: K-562 leukemia
NCI-H522 lung = tested on: NCI-H522 lung
SNB-78 CNS = tested on: SNB-78 CNS
UO-31 renal = tested on: UO-31 renal
MDA-MB-435 = tested on: MDA-MB-435

SMILES	GI50 (SN12C renal) [nM]	TGI (SN12C renal)	GI50 (DLD-1 colon) [nM]	TGI (DLD-1 colon)	GI50 (MOLT-4 leukemia)	TGI (MOLT-4 leukemia)	GI50 (SF-539 CNS) [nM]	TGI (SF-539 CNS)	GI50 (DU-145 prostate) [nM]	GI50 (K-562 leukemia)	TGI (K-562 leukemia)	GI50 (NCI-H522 lung) [nM]	TGI (NCI-H522 lung)	TGI (SNB-78 CNS) [nM]	GI50 (UO-31 renal) [nM]	TGI (UO-31 renal)	GI50 (MDA-MB-435) [nM]	TGI (MDA-MB-435)	TGI (DU-145 prostate) [nM]	GI50 (SNB-78 CNS) [nM]
C[C@H](N)C(=O)N[C@@H]1[C@H]2C(=C(O)C[C@@H](O)[C@@H]2O)C(=O)O[C@]1(C)C(Cl)Cl	212	1230 nM and 1670 nM	185	1620 nM and 2430 nM	186 nM and 130 nM	3790 nM and 564 nM	326	2370 nM and 880 nM	372	229 nM and 233 nM	9750 nM and 2840 nM	191	955 nM and 755 nM	2100	763	5470 nM and 5410 nM	309	3420 nM and 860 nM	–	–
CCN(CC)CC.CCOc1ccc(NC(=O)N=C=[N-])cc1.[CH-]1CCCCC1.[CH-]1CCCCC1.[CH-]1CCCCC1.[Cl-].[Sn+4]	23.3	63.4 nM	18	47.8 nM	28.1 nM	233 nM	23.4	52 nM	61.7	17.1 nM	463 nM	20.5	54.9 nM	373	45.2	92.8 nM	15.1	29.6 nM	190	47.2
CN(C)c1ncnc2c1Cc1ccccc1C(=O)N2C	–	> 100000 nM	–	> 100000 nM	–	> 100000 nM	–	> 100000 nM	–	–	> 100000 nM	–	> 100000 nM	> 100000	–	> 100000 nM	–	–	–	–
Nc1nc(Cl)cc(NCCCCCNc2cc(Cl)nc(N)n2)n1	–	> 100000 nM	–	> 100000 nM	–	> 100000 nM	–	> 100000 nM	–	–	> 100000 nM	–	> 100000 nM	88000	–	> 100000 nM	–	–	–	–
O=C(NCCO)c1cc2c(cn1)[nH]c1ccccc12	–	> 100000 nM	–	> 100000 nM	–	> 100000 nM	–	> 100000 nM	–	–	> 100000 nM	–	> 100000 nM	> 100000	–	> 100000 nM	–	–	–	–
